Measured values taken from publication PMC5478727, “A Novel Small Molecule GDNF Receptor RET Agonist, BT13, Promotes Neurite Growth from Sensory Neurons in Vitro and Attenuates Experimental Neuropathy in the Rat” (Frontiers in Pharmacology, 2017).

Biological target: Ca2+ channel (L, diltiazem site) (Rattus norvegicus, UniProt P22002)
Test: CEREP Ca2+ channel (L, diltiazem site) (benzothiazepines) (antagonist radioligand)
Assay type: binding
Conditions: BT13 1 μM; Cat. No. 0162; average of duplicate; read-out: Percentage of inhibition/potentiation from control

Ca2+ channel (L, diltiazem site), sequence (P22002 whole entry): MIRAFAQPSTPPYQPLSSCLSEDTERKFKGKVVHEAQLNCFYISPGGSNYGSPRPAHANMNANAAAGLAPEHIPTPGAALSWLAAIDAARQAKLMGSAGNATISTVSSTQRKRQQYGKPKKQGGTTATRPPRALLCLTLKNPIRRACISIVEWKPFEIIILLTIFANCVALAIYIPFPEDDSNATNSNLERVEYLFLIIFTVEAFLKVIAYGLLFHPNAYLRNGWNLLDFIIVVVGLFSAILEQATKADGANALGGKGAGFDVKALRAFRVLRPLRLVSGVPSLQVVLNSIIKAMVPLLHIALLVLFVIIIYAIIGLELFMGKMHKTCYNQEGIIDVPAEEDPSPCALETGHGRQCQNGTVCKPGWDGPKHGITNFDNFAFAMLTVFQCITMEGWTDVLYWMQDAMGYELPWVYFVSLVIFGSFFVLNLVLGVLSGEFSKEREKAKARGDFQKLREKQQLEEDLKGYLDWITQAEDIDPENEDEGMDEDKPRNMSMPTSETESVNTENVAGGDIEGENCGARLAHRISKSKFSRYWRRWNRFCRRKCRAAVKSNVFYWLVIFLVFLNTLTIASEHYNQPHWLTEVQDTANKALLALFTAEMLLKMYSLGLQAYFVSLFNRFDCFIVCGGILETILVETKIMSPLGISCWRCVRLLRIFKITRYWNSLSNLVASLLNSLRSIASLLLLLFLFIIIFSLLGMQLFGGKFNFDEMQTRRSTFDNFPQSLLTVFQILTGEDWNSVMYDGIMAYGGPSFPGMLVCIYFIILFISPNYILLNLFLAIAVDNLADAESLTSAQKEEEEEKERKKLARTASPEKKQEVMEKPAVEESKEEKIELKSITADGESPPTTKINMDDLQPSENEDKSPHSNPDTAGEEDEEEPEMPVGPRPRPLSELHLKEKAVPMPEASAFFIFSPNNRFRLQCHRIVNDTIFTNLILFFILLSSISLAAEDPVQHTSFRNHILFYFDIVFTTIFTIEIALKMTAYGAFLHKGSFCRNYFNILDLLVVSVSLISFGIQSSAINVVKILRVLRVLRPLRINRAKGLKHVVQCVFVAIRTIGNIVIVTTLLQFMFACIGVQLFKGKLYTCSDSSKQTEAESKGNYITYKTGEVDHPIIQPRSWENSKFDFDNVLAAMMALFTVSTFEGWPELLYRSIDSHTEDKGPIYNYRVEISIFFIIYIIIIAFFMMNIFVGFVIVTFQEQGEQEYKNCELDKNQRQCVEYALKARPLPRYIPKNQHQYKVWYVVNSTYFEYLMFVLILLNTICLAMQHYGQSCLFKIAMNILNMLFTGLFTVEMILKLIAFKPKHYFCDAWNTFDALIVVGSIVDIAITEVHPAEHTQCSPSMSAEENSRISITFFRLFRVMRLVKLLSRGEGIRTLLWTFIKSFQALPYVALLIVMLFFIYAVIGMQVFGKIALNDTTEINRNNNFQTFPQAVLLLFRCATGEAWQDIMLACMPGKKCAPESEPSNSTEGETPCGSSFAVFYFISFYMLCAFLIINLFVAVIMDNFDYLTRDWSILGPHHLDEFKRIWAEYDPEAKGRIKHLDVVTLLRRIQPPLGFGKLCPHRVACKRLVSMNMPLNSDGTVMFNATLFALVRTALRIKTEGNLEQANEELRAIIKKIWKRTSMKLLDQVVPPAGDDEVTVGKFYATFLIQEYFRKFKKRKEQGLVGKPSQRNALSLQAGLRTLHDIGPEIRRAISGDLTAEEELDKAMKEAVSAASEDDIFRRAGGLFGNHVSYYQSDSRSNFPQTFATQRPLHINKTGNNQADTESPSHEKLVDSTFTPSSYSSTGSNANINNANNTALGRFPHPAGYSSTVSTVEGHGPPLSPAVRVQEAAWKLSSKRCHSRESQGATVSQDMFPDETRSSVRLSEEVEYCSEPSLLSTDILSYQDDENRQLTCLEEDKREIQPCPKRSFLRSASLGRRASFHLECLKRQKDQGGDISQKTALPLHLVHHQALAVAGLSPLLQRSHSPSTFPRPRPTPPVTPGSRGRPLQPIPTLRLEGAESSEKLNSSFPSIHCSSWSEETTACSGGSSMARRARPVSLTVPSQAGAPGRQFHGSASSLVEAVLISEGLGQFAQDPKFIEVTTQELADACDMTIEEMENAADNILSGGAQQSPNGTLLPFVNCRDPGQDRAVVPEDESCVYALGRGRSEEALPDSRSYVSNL

Question: `CCN(CC)S(=O)(=O)c1ccc(OC)c(N2CCN(C(=O)c3ccc(F)cc3C(F)(F)F)CC2)c1` [BT13] was tested. Which inhibition at 1 µM did it give?
Answer: 16%
